The text below walks through data of US20050244485A1, “Transdermal administration of hydrophilic drugs using a basic permeation enhancer composition” (priority 2003, published 2005).

For data set [1] the following is noted: cited from earlier work; for pH of 0.1 M aqueous sol'n: 0.1M aqueous solution, 25° C.
The nature of data set [2]: In vitro skin permeation of diclofenac sodium transdermal delivery systems, Franz diffusion cells. The format is in vitro ADME, human. Conditions: 24 hours; for cumulative amount of diclofenac that permeated through the skin: 32° C. How it is done:
Each formulation was coated on a release liner and dried in an oven at 65° C. for two hours to remove water and other solvents. The dried drug-in-adhesive/release liner film was laminated to a backing film, and the backing/drug-in-adhesive/release liner laminate was then cut into discs with a diameter of 9/16 inch. The theoretical weight percent weight of each component of the system, after drying (calculated assuming all volatile ingredients were completely removed during drying), is set forth in Table 3.
The release liner was peeled away from the disc laminate. […] The skin/adhesive/backing laminate was clamped between the donor and receiver chambers of the diffusion cell with the skin side facing the receiver solution. […] All cells and receiver solution were maintained at 32° C. for the 24-hour duration of the study.

For orientation: pKa means the pH at which an ionisable group is half protonated. Turning to `CC1CCCCN1C` (stereo not shown) [1,2-dimethylpiperidine], in data set [1], the “pH of 0.1 M aqueous sol'n” value is reported as 11.61 and the pKa is 10.22.

For `CC1CCCN1C` (stereo not shown) [1,2-dimethylpyrrolidine], in data set [1], the “pH of 0.1 M aqueous sol'n” value is listed as 11.60 and the pKa is recorded as 10.20.

Turning to `NCCCCN` [1,4-butanediamine], the “pH of 0.1 M aqueous sol'n” value in data set [1] is on record as 11.90.

`CCN1CCCCC1` [1-ethylpiperidine]: in data set [1], the “pH of 0.1 M aqueous sol'n” value was 11.73 and the pKa is reported as 10.45.

Turning to `Cc1cccnc1C` [2,3-dimethylpyridine], the “pH of 0.1 M aqueous sol'n” value in data set [1] was 9.79.

As for `Cc1cc(C)nc(C)c1` [2,4,6-trimethylpyridine], the pKa in data set [1] is 6.69.

For the compound `Cc1c[nH]c(C)n1` [2,4-dimethylimidazole], in data set [1], the “pH of 0.1 M aqueous sol'n” value is 10.68 and the pKa is on record as 8.36.

For the compound `Cc1ccnc(C)c1` [2,4-dimethylpyridine], in data set [1], the “pH of 0.1 M aqueous sol'n” value was 10.00 and the pKa was 6.99.

For `Nc1ccc(N)nc1` [2,5-diaminopyridine], in data set [1], the “pH of 0.1 M aqueous sol'n” value is 9.74 and the pKa was 6.48.

Regarding `CC1CNC(C)CN1` (stereo not shown) [2,5-dimethylpiperazine], in data set [1], the “pH of 0.1 M aqueous sol'n” value was 11.33 and the pKa is 9.66.

Turning to `CCCCCC(C)N` (stereo not shown) [2-aminoheptane], in data set [1], the “pH of 0.1 M aqueous sol'n” value is recorded as 11.85 and the pKa is recorded as 10.70.

Turning to `COc1ccccn1` [2-methoxypyridine], the “pH of 0.1 M aqueous sol'n” value in data set [1] is listed as 8.14.

As for `Cc1cncc(C)c1` [3,5-dimethylpyridine], the “pH of 0.1 M aqueous sol'n” value in data set [1] is 9.58.

For the compound `COc1cccnc1` [3-methoxypyridine], in data set [1], the “pH of 0.1 M aqueous sol'n” value was 8.89 and the pKa is reported as 4.78.

As for `COc1ccncc1` [4-methoxypyridine], in data set [1], the “pH of 0.1 M aqueous sol'n” value was 9.79 and the pKa is 6.58.

Take `CN1CCCC1` [N-methylpyrrolidine]: in data set [1], the “pH of 0.1 M aqueous sol'n” value is recorded as 11.73 and the pKa is 10.46.

In the case of `c1ccc2[nH]cnc2c1` [benzitnidazole], in data set [1], the “pH of 0.1 M aqueous sol'n” value is recorded as 9.24 and the pKa is on record as 5.48.

Regarding `NCc1ccccc1` [benzylamine], in data set [1], the “pH of 0.1 M aqueous sol'n” value is given as 11.17.

Turning to `NC1CCCCC1` [cyclohexylamine], the “pH of 0.1 M aqueous sol'n” value in data set [1] is recorded as 11.82.

In the case of `O=C(O)Cc1ccccc1Nc1c(Cl)cccc1Cl` [diclofenac, diclofenac sodium], the “cumulative amount of diclofenac that permeated through the skin” value in data set [2] (N-methyl glucamine added (Formulation H, with NaOH)) is 1.54 mg/cm^2; in data set [2] (monoethanolamine added (Formulation G, with NaOH)) it was 1.57 mg/cm^2; in data set [2] (no nitrogenous base added (Formulation E, NaOH only)) it was 0.90 mg/cm^2; in data set [2] (triethanolamine added (Formulation F, with NaOH)), 1.08 mg/cm^2. The “cumulative amount of diclofenac permeated, times higher than when no nitrogenous base was present” value in data set [2] (system containing monoethanolamine vs no nitrogenous base) is reported as “about 1.7 times”.

`NCCN` [ethylenediamine]: in data set [1], the pKa is 9.93.

As for `CC(C)N` [isopropylamine], in data set [1], the “pH of 0.1 M aqueous sol'n” value is reported as 11.80 and the pKa is 10.60.

Turning to `CCCCN` [n-butylamine], in data set [1], the “pH of 0.1 M aqueous sol'n” value is given as 11.81.

Turning to `NCCc1ccccc1` [phenethylamine], in data set [1], the “pH of 0.1 M aqueous sol'n” value was 11.42.

`C1CNCCN1` [piperazine]: the “pH of 0.1 M aqueous sol'n” value in data set [1] is 11.42.

In the case of `NC(N)=O` [urea], in data set [1], the “pH of 0.1 M aqueous sol'n” value was 6.55.

With `CC(N)c1ccccc1` (stereo not drawn) [α-methyl-benzylamine], in data set [1], the “pH of 0.1 M aqueous sol'n” value is 11.38 and the pKa is reported as 9.75.

For `Cc1ccncc1` [γ-picoline], in data set [1], the pKa is given as 5.99.
